The source of these data is article PMC8116805, “Inhibition of the Proliferation of Human Lung Fibroblasts by Prostacyclin Receptor Agonists is Linked to a Sustained cAMP Signal in the Nucleus” (Frontiers in Pharmacology, 2021).

The target of assay [1] is T1, prostacyclin receptor (IPR) (Homo sapiens, UniProt P43119).
T1 construct: gene PTGIR
Description: cAMP accumulation (LANCE) in human lung fibroblasts, endogenous receptor; partial agonist. The format is cell-based. (In general: Cyclic AMP is a second messenger, typically raised through Gs and lowered through Gi signalling.)

The target of assay [2] is T1, prostacyclin receptor (IPR). Description: cAMP accumulation (LANCE) in human lung fibroblasts, endogenous receptor; about […] blocked by IPR antagonist RO-1138452. Format: cell-based.

What is called EC50 is the midpoint of the concentration-response curve. Higher therefore signals a need for much substance.

T1 sequence (P43119 1-383): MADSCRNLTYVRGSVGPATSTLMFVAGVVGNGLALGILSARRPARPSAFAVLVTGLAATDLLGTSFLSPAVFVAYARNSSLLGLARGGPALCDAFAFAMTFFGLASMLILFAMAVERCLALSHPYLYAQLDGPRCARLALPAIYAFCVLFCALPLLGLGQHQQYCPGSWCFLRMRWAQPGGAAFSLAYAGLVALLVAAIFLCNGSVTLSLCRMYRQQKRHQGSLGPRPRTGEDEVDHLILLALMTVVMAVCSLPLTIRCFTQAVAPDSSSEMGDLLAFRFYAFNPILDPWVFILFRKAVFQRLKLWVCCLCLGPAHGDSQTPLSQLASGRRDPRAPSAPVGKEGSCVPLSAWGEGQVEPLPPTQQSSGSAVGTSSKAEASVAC

For `CC(C)N(CCCCOCC(=O)O)c1cnc(-c2ccccc2)c(-c2ccccc2)n1` [MRE-269, {4-[(5,6-Diphenylpyrazin-2-yl)(isopropyl)amino]butoxy}acetic Acid], in assay [1], the EC50 was found to be 200 nM.

Consider `CCCCC[C@H](O)CC[C@@H]1[C@H]2Cc3cccc(OCC(=O)O)c3C[C@H]2C[C@H]1O` [treprostinil], for which a half-maximal response in assay [2] (EC50) required 64 nM.
